# Where “and” joins values, the source holds several entries; their conditions need not be identical. Equal entries are not always repeated.
# How the values were obtained:
# [1] = system: C. elegans; assay: C. elegans minimum lethal concentration dose-response; format: in vivo, Caenorhabditis elegans; conditions: for minimal effective concentration: Caenorhabditis elegans, C. elegans viability
# Procedure: (§1) Forty microliters of an HB101 bacterial suspension in liquid NGM (see above) was added to each well of a 96-well flat-bottom culture plate, after which approximately 25 synchronized L1 worms, in 10 μl of M9 buffer (see ref. 59 for the recipe), were added to each well. The synchronized L1 worms were obtained from an embryo preparation performed the previous day (see ref. 59 for the protocol). For the L1 assays, 0.5 μl of chemical solution (or DMSO alone) was immediately added to the wells using a multichannel pipette, the final DMSO concentration is 1% (v/v). The worms were incubated for 3 days at 20° C. and the number of viable animals was counted. […] Although the counts were performed after 3 days of incubation in the chemical, it was noted that the L1s were dead within 24 hours of the addition of the chemicals. For the L2/L3 assays, the worms were incubated in the absence of chemical for 1 day at 20° C. until they reached the L2/L3 stage, at which point chemical was added as described above. The worms were then allowed to incubate for 2 days at 20° C. and the number of viable animals was counted as described for the L1 assay. For the L4 assays, the worms were incubated for 2 days at 20° C. before the addition of chemicals. The L4-stage worms were then incubated in chemical for an additional day before quantifying the number of viable animals. The adult assays were performed the same way as the L4 assays, however HT115 E. coli carrying the empty dsRNA expressing vector L4440 was used in place of HB101 and the worms were cultured at 25° C. as opposed to 20° C. for the entirety of the experiment. The HT115 suspension was made by concentrating a bacterial culture, with an OD600 of ˜ 0.8, five-fold with liquid NGM containing 1 mM IPTG and 100 μg/ml carbenicillin. The HT115 cells were induced with 1 mM IPTG for one hour before concentrating with NGM.
# Compounds Ia to Im, dose-response assays were performed with C. elegans. 8 of the compounds killed C. elegans with minimum lethal concentrations less than or equal to 100 μM (Table 6). Compounds Ia, Ic, and Ij were the most potently lethal nematicides in this assay, having minimum lethal concentrations of 6.25 μM and below. The positive control nematicide tioxazafen killed nematodes at 3.13 μM and above.
# [2] = system: M. incognita J2 larvae; assay: Meloidogyne incognita in vitro assays (J2 movement); format: in vivo; conditions: 45 μM, 2 days, relative to DMSO control
# Procedure: (§2) M. incognita (Kofoid & White) Chitwood Race 1 (originally isolated in Maryland) was used for all experiments, and was maintained on pepper (Capsicum annuum L.) cv. PA-136 in a greenhouse as previously described^64. Infective J2 juveniles were collected as described in ref.65. The microwell dose-response experiments were carried out similarly to previously described protocols^64, 66. In brief, 100 J2s, in 10 μL of deionized water, were added to the wells of 96-well polystyrene plates, after which 190 μL of deionized water containing dissolved chemical, or DMSO alone, was added to each well. The chemicals were tested at 45 μM, and the final concentration of DMSO in each well was 0.5% (v/v). The wells were covered with a plastic adhesive strip, and the lids of the plates were sealed with parafilm. The plates were incubated at 25° C. The mobile fraction of worms was quantified by counting the number of mobile and immobile worms after 2 days of incubation, and then dividing the number of mobile worms by the total number of worms in the well. Three technical replicates were performed for each treatment, and an average value for the mobile fraction of worms was calculated across the three replicates. The percent effectiveness at inhibiting nematode movement was calculated by dividing the average value for the chemical treatment by the average value for the DMSO control, then subtracting this value from 1, and then multiplying by 100.
# [3] = system: M. chitwoodi; assay: Root-knot nematode M. chitwoodi mobility (Table 3); format: in vivo, Meloidogyne chitwoodi; conditions: 45 μM, 2 days of chronic exposure
# Procedure: as §2
# (§3) M. chitwoodi race 1 (the strain commonly found in the pacific northwest of the United States) was used for all experiments, and was maintained on tomato plants (Solanum lycopersicum ‘Rutgers’) as previously described^73. The M. chitwoodi in vitro assays were performed identically to the M. incognita in vitro assays (see above).
# (§4) The ability of exemplary compounds of the application to kill C. elegans at 100 μM (except for compound If which was tested at 50 μM) and to affect the mobility of M. chitwoodi at 45 μM was tested as described above for M. incognita infective juveniles. Percent mobility was measured after 2 days of chronic exposure to test compounds (Table 3).
# [4] = system: C. elegans; assay: C. elegans viability at a single concentration (Table 3); format: in vivo; conditions: Caenorhabditis elegans; 100 μM
# Procedure: as §1, §4
# [5] = system: M. incognita; assay: Meloidogyne incognita infectivity assays (tomato roots in soil); format: in vivo; conditions: 45 μM in soil, 8 weeks, eggs per mg root relative to DMSO control
# Procedure: (§5) An M. incognita population originally collected from grape (Vitis vinifera) in Parlier, Calif., was used for all experiments, and they were maintained on tomato plants (Solanum lycopersicum ‘Rutgers’) as previously described^73. Infective J2 juveniles were collected as described in^73. For the infectivity assays, 90 grams of soil (1:1 sand:loam mix) was added to each cell of several 6-cell plastic garden packs. The soil was drenched with 18 mL of deionized water containing dissolved chemical or DMSO alone. 2,500 infective J2 juveniles were then added to the soil in 2 mL of deionized water, for a total water volume of 20 mL. The final concentration of the chemicals in water was 45 μM. The DMSO concentration varied from 0.1% to 0.8% (v/v) depending on the stock concentration of the chemical. The highest DMSO concentration was used as the DMSO control. The J2s were incubated in the soil and chemical for 24 hours, after which two- to three-week old tomato seedlings were transplanted into the soil (one plant per cell). Two replicates were performed for each chemical treatment, and four replicates were done for the DMSO controls. The whole experiment was replicated twice, in two different batches on two different days, for a total of four replicates for each chemical treatment, and eight replicates for the DMSO controls. Inoculated plants were grown for 8 weeks in a greenhouse, as described^73, under long-day conditions (16-h photoperiod) with 26/18° C. day/night temperatures. After 8 weeks, the plants were destructively harvested. The tops were removed and discarded, and roots were gently washed with water to remove adhering soil. Eggs were extracted by placing rinsed roots in 0.6% sodium hypochlorite and agitating at 300 rpm for 3 min. Roots were then rinsed over nested 250- and 25.4-μm sieves, with eggs collected from the latter and suspended in water. Roots were dried in a 65° C. oven for at least 24 hours, after which dry roots were weighed. The number of eggs from each plant root was counted on a dissection microscope using a haemocytometer, and the number of eggs per milligram of root was calculated by dividing the total egg number by the mass of the dried root material. An average was taken across the replicates performed on the same day, and then normalized to the DMSO control average. To calculate percent effectiveness at inhibiting reproduction, the normalized values were subtracted from 1, and then multiplied by 100. An average percent effectiveness value was then calculated across the two different batches carried out on different days.
# [6] = system: tomato plants; assay: Root mass of tomato plants in the infectivity assays; format: in vivo, Solanum lycopersicum; conditions: 45 μM
# Procedure: as §5
# [7] = system: HepG2 cells; assay: HepG2 cell proliferation assay; format: cell-based, human; conditions: for IC50: Alamar Blue
# Procedure: HepG2 cells, which are liver-derived, were counted using a haemocytometer, diluted, and seeded in […] to a final density of 5×10^4 cells/mL in 100 uL of RPMI-1640 medium supplemented with 10% heat inactivated fetal bovine serum (Gibco) and 1.2×Antibiotic-Antimycotic (Gibco). Cells were incubated at 37° C. with 5% CO2 for 24 hours. Subsequently, a 2-fold dilution series of test compound was added to cells at a final volume of 200 uL and incubated at 37° C. with 5% CO2 for 72 hours. After 72 hours, Alamar Blue (Invitrogen) was added to the Hep G2 cells at a final concentration of 0.5× and plates were incubated at 37° C. for 4 hours. Fluorescence was measured at Ex560 nm/Em590 nm and corrected for background from the medium. All assays were performed in technical triplicates and in at least two biological replicates. The IC50 value was defined as the concentration that inhibits cell proliferation by 50% of the untreated control cells.
# [8] = system: M. chitwoodi J2 larvae; assay: Meloidogyne chitwoodi in vitro assays (J2 movement); format: in vivo; conditions: 45 μM, 2 days, relative to DMSO control
# Procedure: as §2, §3
# [9] = system: Arabidopsis thaliana; assay: Arabidopsis thaliana greening experiments; format: in vivo; conditions: 5, 15 and 45 micromolar, greening after 4 days
# Procedure: Greening experiments were performed with Arabidopsis thaliana seeds of wild type Col-0; seeds were surface sterilized in bleach and plated onto 0.5×MS, 0.5% sucrose agar medium supplemented with compounds of interest at 5, 15 and 45 μM concentrations. After 4 d of stratification at 4° C., plates were transferred to a growth chamber (16 h/8 h, 150 μE/m^2) and greening recorded after 4 days. Pictures were recorded by camera (SONY a7s) with FE1.8/55 lens (FE 55 mm F1.8 ZA; SEL55F18Z). Experiments were performed in triplicate for each treatment.
# [10] = system: M. incognita infective juveniles; assay: Meloidogyne incognita dose-response experiments (infective J2 juveniles, FIG. 2); format: in vivo; conditions: 5, 15, 45 micromolar; third day after water rinse
# Procedure: M. incognita (Kofoid & White) Chitwood Race 1 (originally isolated in Maryland) was used for all experiments, and were maintained on pepper (Capsicum annuum L.) cv. PA-136 in a greenhouse as previously described^64. Infective J2 juveniles were collected as described in ref. 65. The microwell dose-response experiments were carried out similarly to previously described protocols^64, 66. In brief, 100 J2 s, in 10 μL of deionized water, were added to the wells of 96-well polystyrene plates, after which 190 μL of deionized water containing dissolved chemical, or DMSO alone, was added to each well. The final concentration of DMSO in each well was 0.5% (v/v), except for the water only control which contained no DMSO and no added chemicals. The final concentrations of the chemicals for each dose-response experiment were 5, 15, and 45 μM. The wells were covered with a plastic adhesive strip, and the lids of the plates were sealed with parafilm. The plates were incubated at 25° C. The fraction of active worms was quantified by counting the number of mobile and immobile worms after 1 and 2 days of incubation, and then dividing the number of mobile worms by the total number of worms in the well. After 2 days of incubation, the chemicals were removed and replaced with deionized water (i.e. the water rinse) and the fraction of active worms was quantified 1 day later. A failure of the worms to recover after rinsing with water is consistent with them having been killed by the chemical treatment. Four technical replicates were performed for each treatment.
Compound,minimal effective concentration [1],% effectiveness at reducing M. incognita movement [2] [%],RKN mobility [3] [%],viability at 100 µM [4] [%],% effectiveness at inhibiting reproduction of M. incognita [5] [%],Normalized root mass (relative to DMSO control) [6],"HepG2 IC50 ([7]; 72 hours, approximate ppm equivalent) [ppm]","IC50 ([7]; Homo sapiens, HepG2, 72 hours) [µM]",% effectiveness at reducing M. chitwoodi movement [8] [%],times more potent at killing C. elegans than compound Ig ([1]; ratio of minimum lethal concentrations),IC50 ([7]; 72 hours) [µM],effect on health and greening of Arabidopsis thaliana plants (phytotoxicity) [9],nematicidal activity on M. incognita infective juveniles [10]
Cc1cn2cc(-c3ccc(F)cc3)nc2s1 [Ii],> 100 µM and > 23.2 µg/mL,0.0,28.9,100,–,–,–,–,–,–,–,–,–
"Cc1cn2cc(-c3ccc(Br)cc3)nc2s1 [Compound Im, 6-(4-bromophenyl)-2-methylimidazo[2,1-b]thiazole]",> 100 µM and > 29.3 µg/mL,–,–,–,1.2,1.1,–,–,–,–,–,–,–
"Cc1csc2nc(-c3ccc(Br)cc3)cn12 [Compound Il, 6-(4-bromophenyl)-3-methylimidazo[2,1-b]thiazole]",25 µM and 7.3 µg/mL,–,–,–,8.1,1.4,–,–,–,–,–,–,–
Cc1cn2cc(-c3ccc(Cl)cc3)nc2s1 [Compound Ig],> 24.9 µg/mL,0.0,82.4,100,44.2,1.4,> 25,> 100,5.7,–,–,–,–
"Cc1csc2nc(-c3ccc(F)cc3)cn12 [Compound Ik, 6-(4-fluorophenyl)-3-methylimidazo[2,1-b]thiazole]",50 µM and 11.6 µg/mL,–,–,–,0.6,1.0,–,–,–,–,–,–,–
"c1ccc(-c2noc(-c3cccs3)n2)cc1 [tioxazafen, reference compound]",–,55.5,–,–,43.7,1.1,–,–,40.0,more than 32 times,> 100,phytotoxic at 15 and 45 micromolar,–
Cc1cn2cc(-c3ccc(I)cc3)nc2s1 [Ih],> 100 µM and > 34 µg/mL,0.0,82.5,95.4,25.7,1.3,–,–,5.6,–,–,–,–
"O=C(NCCc1ncc(C(F)(F)F)cc1Cl)c1ccccc1C(F)(F)F [fluopyram, reference compound]",–,–,–,–,–,–,–,–,–,–,–,phytotoxic at 15 and 45 micromolar,most potent compound tested

# — patent US20220264883A1, “IMIDAZOTHIAZOLE COMPOUNDS AND METHODS FOR TREATING PLANT NEMATODE INFECTIONS” (The Governing Council of the University of Toronto, priority 2019, published 2022)
